US12404241B2 (Celgene Corporation, priority 2018, dated 2025)
Where a name gives a salt, the structure may show the parent alone.

Target: T1, AR (Homo sapiens, UniProt P10275)
T1 construct: endogenous in cells; host or cells: VCaP cells
T1 sequence (P10275 1-920): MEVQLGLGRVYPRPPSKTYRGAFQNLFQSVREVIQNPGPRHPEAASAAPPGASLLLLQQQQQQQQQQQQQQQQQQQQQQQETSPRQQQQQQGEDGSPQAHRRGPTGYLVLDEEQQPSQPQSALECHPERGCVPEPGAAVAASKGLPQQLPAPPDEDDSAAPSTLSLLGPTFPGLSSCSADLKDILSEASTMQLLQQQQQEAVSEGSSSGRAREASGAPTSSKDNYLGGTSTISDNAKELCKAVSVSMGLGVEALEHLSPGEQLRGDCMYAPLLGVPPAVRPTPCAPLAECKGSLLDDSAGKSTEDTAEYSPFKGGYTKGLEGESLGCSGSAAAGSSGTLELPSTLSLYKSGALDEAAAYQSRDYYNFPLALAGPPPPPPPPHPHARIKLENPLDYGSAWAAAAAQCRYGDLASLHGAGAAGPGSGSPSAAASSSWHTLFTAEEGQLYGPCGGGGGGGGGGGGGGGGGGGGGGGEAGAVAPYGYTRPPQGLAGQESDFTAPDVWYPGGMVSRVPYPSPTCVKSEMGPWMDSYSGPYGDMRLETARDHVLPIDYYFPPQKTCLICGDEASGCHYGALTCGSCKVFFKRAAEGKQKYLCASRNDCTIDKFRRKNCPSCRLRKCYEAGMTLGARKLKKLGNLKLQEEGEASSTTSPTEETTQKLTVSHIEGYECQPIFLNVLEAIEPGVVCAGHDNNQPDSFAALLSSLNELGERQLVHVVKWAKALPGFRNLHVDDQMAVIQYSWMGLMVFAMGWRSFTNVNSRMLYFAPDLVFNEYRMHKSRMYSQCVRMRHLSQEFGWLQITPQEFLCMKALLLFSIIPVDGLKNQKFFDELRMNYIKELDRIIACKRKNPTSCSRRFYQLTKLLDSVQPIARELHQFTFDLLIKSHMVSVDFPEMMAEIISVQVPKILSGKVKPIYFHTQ
Assay: VCAP AR Degradation Assay
Type: cell-based
Settings: for Y (AR degradation efficiency, % of DMSO control): class symbols *; for DC50: class symbols A-C, read-out: DC50
In short: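 Compounds were plated as 10-point 1:3 series reaching 5 μM final, then VCaP cells were seeded onto them and incubated 24 h at 37 °C. Cells were lysed cold, and total AR was measured by sandwich ELISA relative to 0.1% DMSO wells.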

Row | Y (AR degradation efficiency, % of DMSO control) | DC50 | Structure (SMILES)
1 | * (0<Y<=25%) | 100 to 500 nM | CC[C@@H]1CN(CCOc2ccc(N3C(=S)N(c4cnc(C#N)c(C(F)(F)F)c4)C(=O)C34CCC4)cc2C2CC2)CCN1CC(=O)Nc1cccc(NC2CCC(=O)NC2=O)c1 (stereo partly drawn) [Example 262, 2-((R)-4-(2-(4-(7-(6-cyano-5-(trifluoromethyl)pyridin-3-yl)-8-oxo-6-thioxo-5,7-diazaspiro[3.4]octan-5-yl)-2-cyclopropylphenoxy)ethyl)-2-ethylpiperazin-1-yl)-N-(3-(2,6-dioxopiperidin-3-ylamino)phenyl)acetamide]
2 | * (0<Y<=25%) | < 100 nM | CCc1cc(N2C(=S)N(c3cnc(C#N)c(C(F)(F)F)c3)C(=O)C2(C)C)ccc1OCCN1CCN(CC(=O)Nc2cc(F)cc(NC3CCC(=O)NC3=O)c2)C2(CC2)C1 (stereo not drawn) [Example 110, 2-(7-(2-(4-(3-(6-cyano-5-(trifluoromethyl)pyridin-3-yl)-5,5-dimethyl-4-oxo-2-thioxoimidazolidin-1-yl)-2-ethylphenoxy)ethyl)-4,7-diazaspiro[2.5]octan-4-yl)-N-(3-(2,6-dioxopiperidin-3-ylamino)-5-fluorophenyl)acetamide]
3 | * (0<Y<=25%) | < 100 nM | C[C@@H]1CN(CCOc2ccc(N3C(=S)N(c4cnc(C#N)c(C(F)(F)F)c4)C(=O)C34CCC4)cc2C2CC2)C[C@H](C)N1CC(=O)Nc1cccc(NC2CCC(=O)NC2=O)c1 (stereo partly drawn) [Example 196, 2-((2S,6R)-4-(2-(4-(7-(6-cyano-5-(trifluoromethyl)pyridin-3-yl)-8-oxo-6-thioxo-5,7-diazaspiro[3.4]octan-5-yl)-2-cyclopropylphenoxy)ethyl)-2,6-dimethylpiperazin-1-yl)-N-(3-(2,6-dioxopiperidin-3-ylamino)phenyl)acetamide]
4 | ** (25%<Y<=35%) | 100 to 500 nM | CCc1cc(N2C(=S)N(c3cnc(C#N)c(C(F)(F)F)c3)C(=O)C2(C)C)ccc1OCCN1C[C@H]2CC[C@@H]1CN2CC(=O)Nc1cccc(NC2CCC(=O)NC2=O)c1 (stereo partly drawn) [Example 183, 2-((1R,4R)-5-(2-(4-(3-(6-cyano-5-(trifluoromethyl)pyridin-3-yl)-5,5-dimethyl-4-oxo-2-thioxoimidazolidin-1-yl)-2-ethylphenoxy)ethyl)-2,5-diazabicyclo[2.2.2]octan-2-yl)-N-(3-(2,6-dioxopiperidin-3-ylamino)phenyl)acetamide]
5 | * (0<Y<=25%) | < 100 nM | CCc1cc(N2C(=S)N(c3cnc(C#N)c(C(F)(F)F)c3)C(=O)C2(C)C)ccc1OCCN1CCN([C@H](C)C(=O)Nc2cccc(NC3CCC(=O)NC3=O)c2)CC1 (stereo partly drawn) [Example 119, (2R)-2-(4-(2-(4-(3-(6-cyano-5-(trifluoromethyl)pyridin-3-yl)-5,5-dimethyl-4-oxo-2-thioxoimidazolidin-1-yl)-2-ethylphenoxy)ethyl)piperazin-1-yl)-N-(3-(2,6-dioxopiperidin-3-ylamino)phenyl)propanamide]
6 | ** (25%<Y<=35%) | < 100 nM | C[C@@H]1CN(CCOc2ccc(N3C(=S)N(c4cnc(C#N)c(C(F)(F)F)c4)C(=O)C3(C)C)cc2C2CCC2)C[C@H](C)N1CC(=O)Nc1cccc(NC2CCC(=O)NC2=O)c1 (stereo partly drawn) [Example 268, 2-((2R,6S)-4-(2-(4-(3-(6-cyano-5-(trifluoromethyl)pyridin-3-yl)-5,5-dimethyl-4-oxo-2-thioxoimidazolidin-1-yl)-2-cyclobutylphenoxy)ethyl)-2,6-dimethylpiperazin-1-yl)-N-(3-(2,6-dioxopiperidin-3-ylamino)phenyl)acetamide]
7 | ** (25%<Y<=35%) | 100 to 500 nM | CCc1cc(N2C(=S)N(c3cnc(C#N)c(C(F)(F)F)c3)C(=O)C2(C)C)ccc1OCCN1C[C@@H]2CC[C@H]1CN2CC(=O)Nc1cc(Cl)cc(NC2CCC(=O)NC2=O)c1 (stereo partly drawn) [Example 179, N-(3-chloro-5-(2,6-dioxopiperidin-3-ylamino)phenyl)-2-((1S,4S)-5-(2-(4-(3-(6-cyano-5-(trifluoromethyl)pyridin-3-yl)-5,5-dimethyl-4-oxo-2-thioxoimidazolidin-1-yl)-2-ethylphenoxy)ethyl)-2,5-diazabicyclo[2.2.2]octan-2-yl)acetamide]
8 | * (0<Y<=25%) | < 100 nM | C[C@@H]1CN(CCOc2ccc(N3C(=S)N(c4cnc(C#N)c(C(F)(F)F)c4)C(=O)C3(C)C)cc2CCF)CCN1CC(=O)Nc1cc(Cl)cc(NC2CCC(=O)NC2=O)c1 (stereo partly drawn) [Example 140, N-(3-chloro-5-(2,6-dioxopiperidin-3-ylamino)phenyl)-2-((R)-4-(2-(4-(3-(6-cyano-5-(trifluoromethyl)pyridin-3-yl)-5,5-dimethyl-4-oxo-2-thioxoimidazolidin-1-yl)-2-(2-fluoroethyl)phenoxy)ethyl)-2-methylpiperazin-1-yl)acetamide]

Row | Structure (SMILES) | Y (AR degradation efficiency, % of DMSO control) | DC50
9 | C[C@@H]1CN(CCOc2ccc(N3C(=S)N(c4ccc(C#N)c(C(F)(F)F)c4)C(=O)C3(C)C)cc2CC(F)F)CCN1CC(=O)Nc1cc(NC2CCC(=O)NC2=O)ccc1F (stereo partly drawn) [Example 156, 2-((R)-4-(2-(4-(3-(4-cyano-3-(trifluoromethyl)phenyl)-5,5-dimethyl-4-oxo-2-thioxoimidazolidin-1-yl)-2-(2,2-difluoroethyl)phenoxy)ethyl)-2-methylpiperazin-1-yl)-N-(5-(2,6-dioxopiperidin-3-ylamino)-2-fluorophenyl)acetamide] | * (0<Y<=25%) | < 100 nM
10 | CCc1cc(N2C(=S)N(c3ccc(C#N)c(C(F)(F)F)c3)C(=O)C2(C)C)ccc1OCCN1C[C@H](C)N(CC(=O)Nc2cc(Cl)cc(NC3CCC(=O)NC3=O)c2)C[C@@H]1C (stereo partly drawn) [Example 126, N-(3-chloro-5-(2,6-dioxopiperidin-3-ylamino)phenyl)-2-((2S,5S)-4-(2-(4-(3-(4-cyano-3-(trifluoromethyl)phenyl)-5,5-dimethyl-4-oxo-2-thioxoimidazolidin-1-yl)-2-ethylphenoxy)ethyl)-2,5-dimethylpiperazin-1-yl)acetamide] | * (0<Y<=25%) | < 100 nM
11 | CC1(C)C(=O)N(c2cnc(C#N)c(C(F)(F)F)c2)C(=S)N1c1ccc(OCCN2CCN(CC(=O)Nc3cc(Cl)cc(NC4CCC(=O)NC4=O)c3)CC2)c(Cl)c1 (stereo not drawn) [Example 14, hydrochloride] | * (0<Y<=25%) | < 100 nM
12 | CCc1cc(N2C(=S)N(c3ccc(C#N)c(C(F)(F)F)c3)C(=O)C2(C)C)ccc1OCCN1CCN([C@H](C)C(=O)Nc2cccc(NC3CCC(=O)NC3=O)c2)CC1 (stereo partly drawn) [Example 58, (2R)-2-(4-(2-(4-(3-(4-cyano-3-(trifluoromethyl)phenyl)-5,5-dimethyl-4-oxo-2-thioxoimidazolidin-1-yl)-2-ethylphenoxy)ethyl)piperazin-1-yl)-N-(3-(2,6-dioxopiperidin-3-ylamino)phenyl)propanamide] | * (0<Y<=25%) | < 100 nM
13 | CCc1cc(N2C(=S)N(c3ccc(C#N)c(C(F)(F)F)c3)C(=O)C2(C)C)ccc1OCCN1C[C@@H](C)N(CC(=O)Nc2cc(Cl)cc(NC3CCC(=O)NC3=O)c2)C[C@H]1C (stereo partly drawn) [Example 128, N-(3-chloro-5-(2,6-dioxopiperidin-3-ylamino)phenyl)-2-((2R,5R)-4-(2-(4-(3-(4-cyano-3-(trifluoromethyl)phenyl)-5,5-dimethyl-4-oxo-2-thioxoimidazolidin-1-yl)-2-ethylphenoxy)ethyl)-2,5-dimethylpiperazin-1-yl)acetamide] | * (0<Y<=25%) | < 100 nM
14 | C[C@@H]1CN(CCOc2ccc(N3C(=S)N(c4ccc(C#N)c(C(F)(F)F)c4)C(=O)C3(C)C)cc2C2CC2)C[C@H](C)N1CC(=O)Nc1cccc(N[C@H]2CCC(=O)NC2=O)c1 [Example 289, 2-((2R,6S)-4-(2-(4-(3-(4-cyano-3-(trifluoromethyl)phenyl)-5,5-dimethyl-4-oxo-2-thioxoimidazolidin-1-yl)-2-cyclopropylphenoxy)ethyl)-2,6-dimethylpiperazin-1-yl)-N-(3-((S)-2,6-dioxopiperidin-3-ylamino)phenyl)acetamide] | * (0<Y<=25%) | < 100 nM
15 | CCc1cc(N2C(=S)N(c3ccc(C#N)c(C(F)(F)F)c3)C(=O)C2(C)C)ccc1OCCN1CCN(CC(=O)Nc2cccc(NC3CCC(=O)NC3=O)c2)C[C@H]1CO (stereo partly drawn) [Example 49] | ** (25%<Y<=35%) | < 100 nM
